In ChEMBL document CHEMBL1155071, “Discovery of novel 1,2,3,4-tetrahydroisoquinolines and 3,4-dihydroisoquinoline-1(2H)-ones as potent and selective inhibitors of KDR: synthesis, SAR, and pharmacokinetic properties” (Bioorg Med Chem Lett, 2008) one finds IC50 and solubility data, which are given here for 5 compounds.

Data set [1] relates to HUVEC. The experiment in a line: Antiproliferative activity against FGF-induced HUVEC. The conditions noted are these: Homo sapiens. The class given is functional, cell-based.
The target in data set [2] is Vascular endothelial growth factor receptor 2 (Homo sapiens, UniProt P35968). As to the kind of experiment: Inhibition of KDR.
Chain of Vascular endothelial growth factor receptor 2 (P35968 whole entry): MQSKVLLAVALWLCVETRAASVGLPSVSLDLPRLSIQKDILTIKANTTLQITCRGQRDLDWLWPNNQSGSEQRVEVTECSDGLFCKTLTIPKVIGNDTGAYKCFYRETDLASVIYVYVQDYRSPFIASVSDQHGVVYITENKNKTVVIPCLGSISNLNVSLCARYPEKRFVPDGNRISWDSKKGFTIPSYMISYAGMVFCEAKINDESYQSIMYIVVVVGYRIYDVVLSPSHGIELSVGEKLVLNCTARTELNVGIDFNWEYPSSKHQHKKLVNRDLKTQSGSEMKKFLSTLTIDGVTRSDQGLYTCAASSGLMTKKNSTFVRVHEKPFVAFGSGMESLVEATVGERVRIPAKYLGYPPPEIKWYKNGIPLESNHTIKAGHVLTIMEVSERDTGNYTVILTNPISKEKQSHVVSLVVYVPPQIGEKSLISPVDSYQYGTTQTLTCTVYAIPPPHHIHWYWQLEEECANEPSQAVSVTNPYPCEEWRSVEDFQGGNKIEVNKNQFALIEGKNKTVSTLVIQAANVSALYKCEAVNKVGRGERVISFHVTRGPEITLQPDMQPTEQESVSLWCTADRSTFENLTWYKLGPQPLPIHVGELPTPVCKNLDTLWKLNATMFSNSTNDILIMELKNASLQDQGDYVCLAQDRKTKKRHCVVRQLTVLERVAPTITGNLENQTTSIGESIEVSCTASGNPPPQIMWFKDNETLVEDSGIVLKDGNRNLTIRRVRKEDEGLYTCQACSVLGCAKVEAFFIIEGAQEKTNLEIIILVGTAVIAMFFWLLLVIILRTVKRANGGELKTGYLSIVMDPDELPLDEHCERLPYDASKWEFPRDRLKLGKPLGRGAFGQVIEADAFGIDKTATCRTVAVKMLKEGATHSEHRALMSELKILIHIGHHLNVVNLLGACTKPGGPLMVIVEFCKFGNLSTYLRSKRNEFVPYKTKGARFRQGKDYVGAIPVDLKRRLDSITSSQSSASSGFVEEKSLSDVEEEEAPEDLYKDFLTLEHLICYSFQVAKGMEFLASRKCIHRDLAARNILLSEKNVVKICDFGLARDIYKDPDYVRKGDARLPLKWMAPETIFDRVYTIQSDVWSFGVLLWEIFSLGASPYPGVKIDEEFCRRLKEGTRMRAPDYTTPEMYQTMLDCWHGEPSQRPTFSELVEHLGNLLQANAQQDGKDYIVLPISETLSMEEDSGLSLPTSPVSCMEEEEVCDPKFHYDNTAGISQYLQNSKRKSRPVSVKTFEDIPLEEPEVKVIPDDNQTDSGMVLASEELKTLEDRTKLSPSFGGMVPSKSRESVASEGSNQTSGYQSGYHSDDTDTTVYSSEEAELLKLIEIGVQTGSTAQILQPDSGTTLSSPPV
The nature of data set [3]: Aqueous solubility in simulated intestinal fluid at pH 6.8. Type of data set: physicochemical.
In data set [4] the test system is HUVEC. The experiment in a line: Antiproliferative activity against VEGF-induced HUVEC. Type of data set: functional, cell-based. The conditions noted are these: Homo sapiens.

Molecules are shown by their SMILES. Values after ≈ are worked out from the molar mass of the structure shown. Some results are limits rather than exact numbers.

As for `COc1cc2nccc(Oc3ccc4c(C(=O)Nc5ccc(Cl)cc5)cccc4c3)c2cc1OC`, in the data set on HUVEC [1], the IC50 (commonly the concentration needed to halve the response being measured) was greater than 1140 nM.

In data set [2], `COc1cc2nccc(CN3CCc4c(cccc4C(=O)Nc4ccc(Cl)cc4)C3)c2cc1OC` returned a half-maximal inhibitory concentration (IC50) of 165 nM. Moreover, the solubility (usually how much of the substance goes into solution per volume) in data set [3] was 12 µg/mL (≈ 24.6 µM).

Take `COc1cc2nccc(CN3CCc4c(cccc4C(=O)Nc4ccc(C(C)(C)C)cc4)C3)c2cc1OC`: the IC50 in the data set with HUVEC [1] is greater than 1140 nM; in data set [2], 1 nM; in the data set on HUVEC [4] it was 6 nM. The compound also displayed a solubility in data set [3] of 34 µg/mL (≈ 66.7 µM).

Consider `COCCNC(=O)c1cccc2c1CCN(Cc1ccnc3cc(OC)c(OC)cc13)C2`, for which half-maximal inhibition in data set [2] (IC50) was put at 3000 nM. Also, the solubility in data set [3] is greater than 200 µg/mL.

For `COc1cc2nccc(CN3CCc4c(C(=O)Nc5ccc(Cl)c(C(F)(F)F)c5)cccc4C3=O)c2cc1OC`, the half-inhibitory concentration (IC50) in the data set with HUVEC [1] is greater than 1140 nM; in data set [2], 3 nM; in the data set with HUVEC [4], 22 nM. In data set [3], the solubility was 24 µg/mL (≈ 42.1 µM).
